Measurements from patent publication US10280179B2, “Spiroquinoxaline derivatives as inhibitors of non-apoptotic regulated cell-death” (Helmholtz Zentrum Munchen—Deutches Forschungszentrum Fur …, priority 2013, dated 2019).

How the values were obtained:
SH-SY5Y cells = test: TNF-alpha-induced apoptosis, specificity for non-apoptotic cell death (Example B.3); format: cell-based, human; conditions: compound 1 μM, TNF-alpha 10 ng/mL, FIG. 1
Protocol: SH-SY5Y cells were propagated and seeded in 96-well plates, together with compound N-1, N-2, N-10 of Table 1-N (FIG. 1(a)), compound O/S-6 or O/S-3 of Table 1-O/S (FIG. 1(b)), or compound C-12, C-91, or C-205 of Table 1-C (FIG. 1(c)) (each 1 μM) and TNF-alpha was added (final concentration: 10 ng/mL) to induce apoptosis. The apoptosis and pan-caspase inhibitor z-vad (final concentration: 50 μM) and the necroptosis inhibitor Necrostatin-1 (Nec-1; final concentration: 5 μM) were used for comparison. Control wells were established with vehicle only (DMSO), with and without treatment with TNF-alpha to induce apoptosis. Cells were incubated, and cell survival was detected and quantified. Percentage cell survival after TNF-alpha-induced apoptosis is shown (error bars indicate standard deviation (SD)).
Briefly, SH-SY5Y cells were propagated and seeded in 96-well plates, together with the compound to be tested (1 μM), generally as described in Example B.1, except they were seeded at 1,000 cell/well and instead of BSO, TNF-alpha (Invitrogen) was added to a final concentration of 10 ng/mL to induce apoptosis. The apoptosis and pan-caspase inhibitor Z-VAD-fmk (Enzo Life Science; final concentration 50 μM) and the necroptosis inhibitor Necrostatin-1 (Nec-1; Enzo Life Science; final concentration 5 μM) were used for comparison. Control wells were established with vehicle only (DMSO), with and without treatment with TNF-alpha to induce apoptosis. Cells were incubated, and cell survival was detected and quantified as described in Example B.1.

Pfa1 cells = test: Inhibition of non-apoptotic cell death after tamoxifen-induced GPx4 knockout in a recombinant cell line (Example B.4); format: cell-based; conditions: Mus musculus, read-out: Pfa1/TAM IC50
Outline: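 Immortalised murine fibroblasts with tamoxifen-inducible CreERT2 for ablation of both GPx4 copies (Pfa1 cells) received tamoxifen on day 0 together with test compound. Cell survival was measured by AlamarBlue after 72 hours.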

C57BL/6 mice [1] = test: Liver ischemia-reperfusion injury animal model (Example C.1); format: in vivo, mouse; conditions: liver IRI (90 min ischemia, 24 h reperfusion), single i.p. dose 10 mg/Kg, compared to vehicle control
Protocol: FIG. 2: Efficacy of a compound of the invention in an animal model of liver IRI. […] The “Sham” bar represents the data from control animals that were treated to the same protocol but without atraumatic clipping. Errors shown are SEM. Significant differences are seen between IRI+vehicle compared to IRI+Cmpd, as well as between IRI+vehicle compared to Sham+vehicle.
Briefly, to test such utility of compounds disclosed herein, ischemia is induced in the liver of 6-8 week old C57BL/6 mice (Charles River) by midline laparotomy whereby the blood supply to the left and median lobes of the liver is interrupted via atraumatic clipping for 90 min, followed by reperfusion for a period of 24 h. After reperfusion, but prior to final abdominal closure, animals are treated with a single i.p. dose of the compound to be tested (10 mg/Kg), or with vehicle (DMSO) as negative control. Markers to be investigated for IRI of liver include liver parameters from serum (ALT/GPT, AST/GOT, Bilirubin, Urea), histopathological analysis and rtPCR of inflammatory and non-apoptotic cell death markers (such as TNF-alpha and INF-gamma). […] The “Sham” bar represents the data from control animals that were treated to the same protocol but without atraumatic clipping.

C57BL/6 mice [2] = test: Kidney ischemia-reperfusion injury animal model (Example C.2); format: in vivo, mouse; conditions: kidney IRI, compared to vehicle control, FIG. 3
Protocol: FIG. 3: Efficacy of a compound of the invention in an animal model of kidney IRI.
Briefly, to test such utility of compounds disclosed herein, ischemia is induced in the kidney of 6-8 week old C57BL/6 mice by interruption of the blood supply to the kidney via reversible clipping of the Arteria renalis for 30 min, followed by reperfusion for a period of 24 h. Mice are treated with compound (or vehicle control) generally as described in Example C.1 at 1 hour prior to and four hours after abdominal closure and once daily over a period of 14 days. Markers to be investigated for IRI of kidney include reduction of creatinine levels in the serum along with histopathological analysis.

C57BL/6 mice [3] = test: Traumatic brain injury (controlled cortical impact) animal model (Example C.5); format: in vivo, mouse; conditions: TBI (CCI), 24 h after CCI, compared to vehicle control, FIG. 4
Protocol: FIG. 4: Efficiency of a compound of the invention in an animal model of traumatic brain injury.
Briefly, to test such utility of compounds disclosed herein, male C57BL/6 mice are anesthetised prior to the induction of trauma. Core body temperature is maintained at 37° C. using a feedback-controlled heating pad connected to a rectal probe. To induce trauma, a craniotomy is prepared over the right parietal cortex. Controlled cortical impact (CCI) is delivered perpendicular to the surface of the brain with a custom-made CCI applicator for mice using the following parameters: 8 m/s velocity, 3 mm diameter, 1 mm brain displacement and 150 ms duration. Following CCI, the skull is closed by affixing the removed bone flap using veterinary-grade tissue glue (Vetbond, 3M, St. Paul, Minn.). Compounds are administered at 1 mg/Kg or 10 mg/Kg (dissolved in 40% PEG) 15 minutes after TBI induction and 40% PEG is included as vehicle control. The animals are recovered from anesthesia in an incubator heated to 33° C. Animals are sacrificed and the brain is removed 24 h after CCI and immediately frozen on crushed dry ice and stored at −80° C. […] The sections are stained with cresyl violet for quantifying the area of contused brain, and contusion volume is calculated and the effect of the compounds tested observed following analysis of such data.

## Clc1cccc(CNC2=Nc3ccccc3NC23CCNCC3)c1 [N-2]
SH-SY5Y cells
  Percentage cell survival after TNF-alpha-induced apoptosis: Non-inhibition of apoptotic cell-death
Pfa1 cells
  IC50: < 0.02 µM
C57BL/6 mice [1]; FIG. 2(a)
  serum marker for liver cell damage GPT: significant reduction
C57BL/6 mice [1]; FIG. 2(b)
  serum marker for liver cell damage GOT: significant reduction
C57BL/6 mice [2]; dose 1 mg/kg
  survival of mice suffering kidney-ischemic reperfusion injury: Improved survival
C57BL/6 mice [2]; dose 10 mg/kg
  survival of mice suffering kidney-ischemic reperfusion injury: Improved survival
C57BL/6 mice [3]
  contusion volume in the brains of mice following traumatic brain injury: trend of a (non-significant) positive effect
